The subject of series [1] is Staphylococcus aureus. The experiment in a line: Antibacterial activity against Staphylococcus aureus ATCC 6538 assessed as inhibition of bacterial growth incubated for 16 to 24 hrs by broth microdilution method. The series is classed as functional. Particulars: time 16-24 hrs. A general note: Dilution methods test growth across graded concentrations, often in twofold steps.

The test system of series [2] is Staphylococcus epidermidis. The experiment in a line: Antibacterial activity against Staphylococcus epidermidis ATCC 12228 assessed as inhibition of bacterial growth incubated for 16 to 24 hrs by broth microdilution method. In kind it is functional. The settings on record: time 16-24 hrs.
The next series relates to Bacillus subtilis. The series is described as follows: Antibacterial activity against Bacillus subtilis ATCC 6633 assessed as inhibition of bacterial growth incubated for 16 to 24 hrs by broth microdilution method. The series is classed as functional. Particulars: time 16-24 hrs.
Series [3] has as its system Staphylococcus aureus. The series is described as follows: Antibacterial activity against methicillin-resistant Staphylococcus aureus CIP106760 assessed as inhibition of bacterial growth incubated for 16 to 24 hrs by broth microdilution method. The settings on record: time 16-24 hrs. In kind it is functional.
In series [4] the test system is Enterococcus faecalis. The experiment in a line: Antibacterial activity against Enterococcus faecalis ATCC 29212 assessed as inhibition of bacterial growth incubated for 16 to 24 hrs by broth microdilution method. The settings on record: time 16-24 hrs. In kind it is functional.
In series [5] the test system is Enterococcus faecalis. The series is described as follows: Antibacterial activity against vancomycin-resistant Enterococcus faecalis ATCC 51299 assessed as inhibition of bacterial growth incubated for 16 to 24 hrs by broth microdilution method. In kind it is functional. The settings on record: time 16-24 hrs.
In series [6] the test system is Staphylococcus aureus. The series is described as follows: Antibacterial activity against methicillin-sensitive Staphylococcus aureus ATCC 25923 assessed as inhibition of bacterial growth incubated for 16 to 24 hrs by broth microdilution method. The series is classed as functional. Particulars: time 16-24 hrs.
The nature of series [7]: Antioxidant activity assessed as DPPH radical scavenging activity at 10 ug/ml by DPPH assay relative to control. The series is classed as functional. The settings on record: dose 10.0 µg/ml. In general terms: The DPPH test is a chemical assay of radical scavenging.
In series [8] the test system is HaCaT. The series is described as follows: Cytotoxicity against human HaCaT cells assessed as cell viability at 50 uM after 24 hrs by MTT assay. In kind it is cell-based. The settings on record: hacat, 24 h, 50 µM.
The nature of series [9]: Toxicity in Saccharomyces cerevisiae ATCC 2601 assessed as reduction in cell viability measured after 24 hrs by microdilution method. The settings on record: for IC50 at 24 h: Saccharomyces cerevisiae, Saccharomyces cerevisiae ATCC 2601 cells.
Series [10] concerns HaCaT. The experiment in a line: Cytotoxicity against human HaCaT cells assessed as reduction in cell viability at 50 uM after 24 hrs by MTT assay. The series is classed as cell-based.
The nature of series [11]: Toxicity in Artemia salina assessed as mortality at 10 ug/ml measured after 24 hrs. The settings on record: at 10 µg/mL.

In brackets after ≈: the same amount, converted by molar mass.

Consider seven compounds from ChEMBL document CHEMBL4837201, “Increased antibacterial properties of indoline-derived phenolic Mannich bases” (Eur J Med Chem, 2021).

Usually MIC stands for the lowest concentration that inhibits growth of the organism. The MBC is the lowest tested concentration that kills the bacteria rather than only halting them. What is called IC50 is the concentration needed to halve the response being measured. What is called mortality is the percentage killed.

As to `CN[C@H](CC(C)C)C(=O)N[C@H]1C(=O)N[C@@H](CC(N)=O)C(=O)N[C@H]2C(=O)N[C@H]3C(=O)N[C@H](C(=O)N[C@H](C(=O)O)c4cc(O)cc(O)c4-c4cc3ccc4O)[C@H](O)c3ccc(c(Cl)c3)Oc3cc2cc(c3O[C@@H]2O[C@H](CO)[C@@H](O)[C@H](O)[C@H]2O[C@H]2C[C@](C)(N)[C@H](O)[C@H](C)O2)Oc2ccc(cc2Cl)[C@H]1O` [VANCOMYCIN], the MIC in the series with Staphylococcus aureus [1] was 1.35 µM (≈ 1.96 µg/mL); in [2] it was 1.95 µM (≈ 2.83 µg/mL); with Bacillus subtilis, 1.95 µM (≈ 2.83 µg/mL); with Staphylococcus aureus [3], below 1.5 µM; in the series on Enterococcus faecalis [4], 3.07 µM (≈ 4.45 µg/mL); in the series with Enterococcus faecalis [5] it was below 5.83 µM. In addition, the MIC in the series with Staphylococcus aureus [6] turned out to be 5.4 µM (≈ 7.83 µg/mL).

Regarding `Cc1ccc(C(c2cc([N+](=O)[O-])ccc2O)N2CCc3cc(O)ccc32)cc1` (configuration not stated), the MBC in the series with Staphylococcus aureus [1] was 332 µM (≈ 125 µg/mL); in series [2] it was 302 µM (≈ 114 µg/mL); in the series with Bacillus subtilis it was above 9.43 µM; with Staphylococcus aureus [3], 108 µM (≈ 40.7 µg/mL); in the series with Enterococcus faecalis [4], 108 µM (≈ 40.7 µg/mL); in the series on Enterococcus faecalis [5], 108 µM (≈ 40.7 µg/mL). In addition, in the series with Staphylococcus aureus [6], the MBC turned out to be 542 µM (≈ 204 µg/mL). Moreover, the MIC in the series on Staphylococcus aureus [1] stood at 166 µM (≈ 62.6 µg/mL); in [2], 37.8 µM (≈ 14.2 µg/mL); in the series on Bacillus subtilis, 2.4 µM (≈ 0.903 µg/mL); with Staphylococcus aureus [3], 67.7 µM (≈ 25.5 µg/mL); in the series on Enterococcus faecalis [4] it was 135 µM (≈ 50.8 µg/mL); in the series with Enterococcus faecalis [5], 135 µM (≈ 50.8 µg/mL). For the same compound, in the series with Staphylococcus aureus [6], the MIC amounted to 67.7 µM (≈ 25.5 µg/mL). Besides, the Activity in series [7] is above 80%.

On to `Cc1ccc(C(c2cc([N+](=O)[O-])ccc2O)N2CCc3cc(Br)ccc32)cc1` (configuration not stated), for which the MBC is below 142 µM in the series with Staphylococcus aureus [1]; 4.71 µM (≈ 2.07 µg/mL) in series [2]; 9.43 µM (≈ 4.14 µg/mL) in the series with Bacillus subtilis; 20.3 µM (≈ 8.92 µg/mL) in the series with Staphylococcus aureus [3]; 81.1 µM (≈ 35.6 µg/mL) in the series on Enterococcus faecalis [4]; 162 µM (≈ 71.2 µg/mL) in the series on Enterococcus faecalis [5]. Besides, the MBC in the series on Staphylococcus aureus [6] was found to be 81.1 µM (≈ 35.6 µg/mL). The MIC in the series with Staphylococcus aureus [1] was determined as 17.8 µM (≈ 7.82 µg/mL); in series [2] it was 9.43 µM (≈ 4.14 µg/mL); in the series on Bacillus subtilis, 4.71 µM (≈ 2.07 µg/mL); in the series with Staphylococcus aureus [3] it was 5.07 µM (≈ 2.23 µg/mL); in the series with Enterococcus faecalis [4] it was 5.07 µM (≈ 2.23 µg/mL); with Enterococcus faecalis [5], 10.1 µM (≈ 4.44 µg/mL). Also, in the series on Staphylococcus aureus [6], the MIC is 10.1 µM (≈ 4.44 µg/mL). Moreover, the Activity in series [7] was above 80%.

On to `Cc1ccc(C(c2cc([N+](=O)[O-])ccc2O)N2CCc3cc(Cl)ccc32)cc1` (configuration not stated), for which the MBC in the series on Staphylococcus aureus [1] was below 158 µM; in series [2], 37.7 µM (≈ 14.9 µg/mL); with Bacillus subtilis, 151 µM (≈ 59.6 µg/mL); in the series on Staphylococcus aureus [3] it was 4.59 µM (≈ 1.81 µg/mL); with Enterococcus faecalis [4] it was 9.19 µM (≈ 3.63 µg/mL); in the series with Enterococcus faecalis [5], 9.19 µM (≈ 3.63 µg/mL). In addition, the MBC with Staphylococcus aureus [6] worked out at 36.8 µM (≈ 14.5 µg/mL). Besides, the MIC is 19.8 µM (≈ 7.82 µg/mL) in the series on Staphylococcus aureus [1]; 75.4 µM (≈ 29.8 µg/mL) in series [2]; 37.7 µM (≈ 14.9 µg/mL) in the series on Bacillus subtilis; 1.15 µM (≈ 0.454 µg/mL) in the series on Staphylococcus aureus [3]; 1.15 µM (≈ 0.454 µg/mL) in the series on Enterococcus faecalis [4]; 2.3 µM (≈ 0.908 µg/mL) with Enterococcus faecalis [5]. Further, the MIC in the series with Staphylococcus aureus [6] was 2.3 µM (≈ 0.908 µg/mL). In series [7], the Activity was above 80%.

Regarding `Cc1ccccc1C(c1cc([N+](=O)[O-])ccc1O)N1CCc2cc(Br)ccc21` (configuration not stated), the MBC was 4.45 µM (≈ 1.95 µg/mL) with Staphylococcus aureus [1]; below 1.18 µM in series [2]; below 1.18 µM in the series on Bacillus subtilis; 1.11 µM (≈ 0.488 µg/mL) with Staphylococcus aureus [3]; 8.89 µM (≈ 3.91 µg/mL) in the series on Enterococcus faecalis [4]; 142 µM (≈ 62.4 µg/mL) with Enterococcus faecalis [5]. Moreover, the MBC in the series on Staphylococcus aureus [6] was 35.6 µM (≈ 15.6 µg/mL). Moreover, the MIC with Staphylococcus aureus [1] is 1.11 µM (≈ 0.488 µg/mL); in [2] it was below 1.18 µM; in the series on Bacillus subtilis, below 1.18 µM; in the series with Staphylococcus aureus [3], 1.11 µM (≈ 0.488 µg/mL); in the series with Enterococcus faecalis [4] it was 1.11 µM (≈ 0.488 µg/mL); in the series on Enterococcus faecalis [5] it was 4.45 µM (≈ 1.95 µg/mL). In addition, the MIC with Staphylococcus aureus [6] came to 2.22 µM (≈ 0.975 µg/mL). Also, the Activity entry in the series with HaCaT [8] and in the series on HaCaT [10] was “Toxic” each time. For the same compound, the IC50 at 24 h in series [9] is above 100 µM.

NYSTATIN: the IC50 in series [9] turned out to be 3.31 µM.

As for `O=[N+]([O-])c1ccc(O)c(C(c2ccc(Cl)cc2)N2CCc3ccccc32)c1` (configuration not stated), the MBC was 2.47 µM (≈ 0.941 µg/mL) with Staphylococcus aureus [1]; below 1.23 µM in the series on Staphylococcus aureus [3]; above 9.86 µM in the series with Enterococcus faecalis [4]; 19.7 µM (≈ 7.5 µg/mL) in the series with Enterococcus faecalis [5]; 9.86 µM (≈ 3.75 µg/mL) in the series on Staphylococcus aureus [6]. Also, the MIC was 1.23 µM (≈ 0.468 µg/mL) with Staphylococcus aureus [1]; 1.23 µM (≈ 0.468 µg/mL) in the series on Staphylococcus aureus [3]; 1.23 µM (≈ 0.468 µg/mL) with Enterococcus faecalis [4]; 1.23 µM (≈ 0.468 µg/mL) in the series with Enterococcus faecalis [5]; 2.47 µM (≈ 0.941 µg/mL) in the series on Staphylococcus aureus [6]. Further, the mortality at 24 h, 10 ug/ml in series [11] is below 15%. For the same compound, in series [9], the IC50 at 24 h was above 100 µM.
